# Data from patent US20090075978A1, “SUBSTITUTED PROPIOLIC ACID AMIDES AND THEIR USE FOR PRODUCING DRUGS” (Grunenthal GmbH, priority 2005, published 2009).
# What was measured:
# [1] = target: T1, mGluR5 receptor (human) (Homo sapiens, UniProt P41594); assay: Functional Ca2+ influx assay in the mGluR5 receptor assay (CHO-hmGluR5 cells, DHPG); assay type: cell-based; conditions: 10 μM DHPG, Ki=IC50/(1+(AGconc/EC50))
# T1 construct: host or cells: CHO cells (CHO-hmGluR5), expression induced with doxycycline
# From the text: II. Method for Determining Ca^2+ Influx in the mGluR5 Receptor Assay
# An agonistic and/or antagonistic substance action on the mGluR5 receptor of the rat species may be determined with the following assay. According to this assay, intracellular Ca^2+ release is quantified after activation of the mGluR5 receptor with the assistance of a Ca^2+-sensitive dye (type Fluo-4, Molecular Probes Europe BV, Leiden, Netherlands) in a FlexStation (Molecular Devices, Sunnyvale, USA).
# Description of the Functional Ca^2+ Influx Assay
# 20,000 CHO-hmGluR5 cells/well (Euroscreen, Gosselies, Belgium) are pipetted out into 96 well plates (BD Biosciences, Heidelberg, Germany, Ref. 356640, clear bottom, 96 well, poly-D-lysine) and incubated overnight in HBSS buffer (Gibco No. 14025-050) with the following additives: 10% FCS (GIBCO, 10270-106) and doxycycline (BD Biosciences Clontech 631311 600 ng/ml).
# For the purpose of functional investigation, the cells were loaded with 2 μM Fluo-4 and 0.01 vol. % Pluronic F127 (Molecular Probes Europe BV, Leiden, Netherlands) in HBSS buffer (Hank's buffered saline solution, Gibco Invitrogen GmbH, Karlsruhe, Germany) with Probenicid (Sigma P8761, 0.69 mg/ml) for 30 min at 37° C.
# The cells are then washed 3 times with washing buffer (HBSS buffer, Gibco No. 14025-050, with Probenicid (Sigma P8761, 0.69 [mg]/ml) and then resuspended with the same buffer to make up to 100 μl. After 15 min the plates are transferred for determination of Ca^2+ measurements in the presence of DHPG ((S)-3,5-dihydroxyphenylglycine, Tocris Biotrend Chemikalien GmbH, Cologne, Germany, final DHPG concentration: 10 μM) and in the presence or absence of test substances into a FLuorometric Imaging Plate Reader (FLIPR, Molecular Devices, Sunnyvale, Calif.).
# Ca^2+-dependent fluorescence is measured before and after addition of test substances. Quantification proceeds by measuring the highest fluorescence intensity over time.
# After recording a fluorescence baseline for 10 s, 50 μl of test substance solution (various test substance concentrations in HBSS buffer with 1% DMSO and 0.02% Tween 20, Sigma) are added and the fluorescence signal is measured for 6 min. Then, 50 μl of DHPG solution ((S)-3,5-dihydroxyphenylglycine, Tocris Biotrend Chemikalien GmbH, Cologne, Germany, final DHPG concentration: 10 μM) are added and Ca^2+ influx is simultaneously measured for 60 s. The final DMSO concentration amounts to 0.25% and the final Tween 20 content amounts to 0.005%. The data are analysed with Microsoft Excel and GraphPad Prism. The dose-response curves are calculated with non-linear regression and IC50 values are determined. Each data point is determined in triplicate and IC50 values are averaged from a minimum of 2 independent measurements.
# Ki values are calculated using the following formula: Ki=IC50/(1+(AGconc/EC50)).
# AGconc=10 μM; EC50 corresponds to the DHPG concentration which is necessary for the semimaximal influx of Ca^2+.
# [2] = target: T2, mGluR5 receptor (pig) (Sus scrofa, UniProt I3LUI7); assay: [3H]-MPEP binding in the mGluR5 receptor binding assay (pig brain homogenate); conditions: 5 nM [3H]-MPEP; for IC50: pig brain homogenate; for mGluR5 receptor (pig) (10 μM) Inhibition (%): 10 μM test compound, 450 μg protein from pig brain homogenate, 60 min, room temperature
# T2 construct: 450 μg of protein from brain homogenate is incubated; from tissue; host or cells: pig brain hemispheres without medulla, cerebellum and pons
# Experimental: I. Method for Determining the Inhibition of [^3H]-MPEP Binding in the mGluR5 Receptor Binding Assay
# Pig brain homogenate is produced by homogenisation (Polytron Pt 3000, Kinematica AG, 10,000 revolutions per minute for 90 seconds) of pig brain hemispheres without medulla, cerebellum and pons in a buffer of pH 8.0 (30 mM Hepes, Sigma, order number H3375+1 tablet Complete Roche Diagnostics, order number 1836145 made up to 100 ml) in a ratio of 1:20 (brain weight/volume) and differential centrifugation at 900×g and 40,000×g. 450 μg of protein from brain homogenate is incubated in each case in 250 μl incubation batches in 96-well microtitre plates with 5 nM ^3[H]-MPEP (Tocris, order number R1212) (MPEP=[…]) and the compounds to be investigated ([…]) in the buffer (as above) at room temperature for 60 min.
# The batches are then filtered with the assistance of a Brandel Cell Harvester (Brandel, Robotic 9600 model) on Unifilter plates with glass filter mats (Perkin Elmer, order number 6005177) and then washed 3 times with buffer (as above) using 250 μl per sample. The filter plates are then dried for 60 min at 55° C. Then 30 μl of Ultima Gold™ scintillating material (Packard BioScience, order number 6013159) is added per well and after 3 hours the samples are measured using the β counter (Microbeta, Perkin Elmer). Nonspecific binding is determined by the addition of 10 μM MPEP (Tocris, order number 1212).
# [3] = system: pain response in rats; assay: Formaldehyde test in rats (phase 2, chronic pain component); assay type: in vivo
# Experimental: III. Formaldehyde Test in Rats:
# The formaldehyde test (Dubuisson, D. and Dennis, S. G., 1977, Pain, 4, 161-174) is a model of acute and chronic pain. A biphasic nociceptive response is induced in freely mobile test animals by a single formaldehyde injection into the dorsal side of a hind paw, said response being detected by the observation of three clearly distinguishable behaviour patterns. The response is in two phases: phase 1=immediate response (duration up to 10 min; paw shaking, licking), phase 2=late response (after a resting phase; likewise paw shaking, licking; duration up to 60 min). […] In the investigations presented here, it was the chronic pain component (phase 2) which was evaluated.
# Formaldehyde is administered subcutaneously in a volume of 50 μl and a concentration of 5% into the dorsal side of the right hind paw of each animal. […] The specific behavioural changes, such as raising and shaking the paw, changes in weight bearing of the animal and biting and licking responses are observed and recorded over the observation period of 21 to 27 min after the formaldehyde injection. The various behaviours are summarised as a “pain rate” (PR), which is the calculated nociceptive response averaged over 3 min sub-intervals. […]
# T1 sequence (P41594 21-1212): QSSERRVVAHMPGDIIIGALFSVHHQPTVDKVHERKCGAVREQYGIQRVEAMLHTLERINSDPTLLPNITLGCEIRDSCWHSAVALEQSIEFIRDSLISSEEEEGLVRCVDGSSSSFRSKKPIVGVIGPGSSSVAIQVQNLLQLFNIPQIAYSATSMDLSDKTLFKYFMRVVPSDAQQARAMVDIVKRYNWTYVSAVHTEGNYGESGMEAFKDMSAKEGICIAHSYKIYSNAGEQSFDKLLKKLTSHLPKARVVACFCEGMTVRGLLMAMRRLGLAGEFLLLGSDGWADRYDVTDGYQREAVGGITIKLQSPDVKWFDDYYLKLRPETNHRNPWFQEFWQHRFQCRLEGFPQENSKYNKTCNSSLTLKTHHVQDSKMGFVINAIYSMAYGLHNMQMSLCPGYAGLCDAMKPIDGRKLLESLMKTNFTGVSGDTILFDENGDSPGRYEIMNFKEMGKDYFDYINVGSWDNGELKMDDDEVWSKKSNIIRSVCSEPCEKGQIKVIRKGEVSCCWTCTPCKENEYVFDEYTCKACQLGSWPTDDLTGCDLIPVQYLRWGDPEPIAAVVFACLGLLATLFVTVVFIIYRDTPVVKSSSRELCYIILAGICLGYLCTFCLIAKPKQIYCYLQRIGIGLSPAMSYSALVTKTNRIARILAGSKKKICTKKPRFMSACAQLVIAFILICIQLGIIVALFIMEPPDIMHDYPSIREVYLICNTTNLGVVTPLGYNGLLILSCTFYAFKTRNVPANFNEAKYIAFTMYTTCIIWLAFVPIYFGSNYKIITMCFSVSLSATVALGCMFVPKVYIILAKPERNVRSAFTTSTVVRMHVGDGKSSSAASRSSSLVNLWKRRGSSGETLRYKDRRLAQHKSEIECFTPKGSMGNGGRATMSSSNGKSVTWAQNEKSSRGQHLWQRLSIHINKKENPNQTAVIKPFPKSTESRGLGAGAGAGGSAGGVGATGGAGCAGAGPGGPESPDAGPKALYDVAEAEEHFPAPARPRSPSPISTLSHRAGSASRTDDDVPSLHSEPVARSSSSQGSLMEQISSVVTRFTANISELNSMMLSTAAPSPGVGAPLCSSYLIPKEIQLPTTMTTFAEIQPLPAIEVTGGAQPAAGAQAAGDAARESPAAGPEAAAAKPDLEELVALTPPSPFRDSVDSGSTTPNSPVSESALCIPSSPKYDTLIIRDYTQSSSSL
# T2 sequence (I3LUI7 19-1212): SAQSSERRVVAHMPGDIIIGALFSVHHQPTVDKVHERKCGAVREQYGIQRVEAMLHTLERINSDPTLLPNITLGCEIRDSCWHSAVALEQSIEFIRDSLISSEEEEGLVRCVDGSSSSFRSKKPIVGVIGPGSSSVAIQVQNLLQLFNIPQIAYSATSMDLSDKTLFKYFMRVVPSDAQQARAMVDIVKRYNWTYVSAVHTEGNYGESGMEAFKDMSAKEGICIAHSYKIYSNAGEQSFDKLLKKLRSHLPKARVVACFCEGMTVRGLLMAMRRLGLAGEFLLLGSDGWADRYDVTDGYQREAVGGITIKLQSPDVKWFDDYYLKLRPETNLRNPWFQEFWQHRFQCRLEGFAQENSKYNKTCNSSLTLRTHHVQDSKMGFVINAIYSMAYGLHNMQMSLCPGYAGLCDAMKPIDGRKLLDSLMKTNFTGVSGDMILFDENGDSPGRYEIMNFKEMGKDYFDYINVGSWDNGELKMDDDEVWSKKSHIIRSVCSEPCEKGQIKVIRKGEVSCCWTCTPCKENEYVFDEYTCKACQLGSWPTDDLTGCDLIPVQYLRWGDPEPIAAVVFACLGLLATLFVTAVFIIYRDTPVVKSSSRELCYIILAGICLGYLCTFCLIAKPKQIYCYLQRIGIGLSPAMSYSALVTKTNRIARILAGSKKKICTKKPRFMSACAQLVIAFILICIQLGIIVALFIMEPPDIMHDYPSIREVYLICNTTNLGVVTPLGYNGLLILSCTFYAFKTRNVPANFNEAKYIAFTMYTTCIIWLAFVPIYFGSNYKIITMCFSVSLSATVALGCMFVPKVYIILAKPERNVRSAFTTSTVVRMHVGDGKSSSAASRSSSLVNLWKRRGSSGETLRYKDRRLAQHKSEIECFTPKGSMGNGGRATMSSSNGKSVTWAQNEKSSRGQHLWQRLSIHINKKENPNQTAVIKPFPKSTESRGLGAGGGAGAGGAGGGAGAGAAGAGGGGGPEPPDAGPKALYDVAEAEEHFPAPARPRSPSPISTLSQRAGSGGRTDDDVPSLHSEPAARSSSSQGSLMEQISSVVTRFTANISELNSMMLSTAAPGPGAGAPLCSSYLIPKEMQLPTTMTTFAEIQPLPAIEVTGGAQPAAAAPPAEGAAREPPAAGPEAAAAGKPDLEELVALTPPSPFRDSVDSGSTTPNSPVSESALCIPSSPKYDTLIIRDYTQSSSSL
SMILES,Ki [1] [nM],IC50 [2] [nM],mGluR5 receptor (pig) (10 μM) Inhibition (%) [2] [%],further results
"O=C(C#Cc1ccccc1)N1CCc2ccccc2C1 [Example 1, 2-(3-phenyl-propiolyl)-1,2,3,4-tetrahydro-isoquinoline]",11.5,180,–,–
"O=C(C#Cc1cccc(Cl)c1)N1CCc2ccccc2C1 [Example 5, 2-(3-(3-chlorophenyl)-propiolyl)-1,2,3,4-tetrahydro-isoquinoline]",1,23,–,–
"O=C(C#Cc1cccc(Cl)c1)N1CCc2ccccc2CC1 [Example 12, 3-(3-(3-chlorophenyl)-propiolyl)-1,2,4,5-tetrahydrobenzo[d]azepine]",0.3,23,–,–
"CC1c2ccccc2CCN1C(=O)C#Cc1cccc(Cl)c1 (stereo not drawn) [Example 18, 2-(3-(3-chlorophenyl)-propiolyl)-1-methyl-1,2,3,4-tetrahydro-isoquinoline]",1.2,5.4,–,"ED50 ([3]; iv, rat, i.v., 30 min before formaldehyde): 1.06 mg/kg; Formaldehyde test (rat) per os Reduction in nociceptive behaviour relative to control at 10 mg/kg [%] ([3]; per os, 10 mg/kg): 41%"
"CC1Cc2ccccc2CN1C(=O)C#Cc1cccc(Cl)c1 (stereo not drawn) [Example 19, 2-(3-(3-chlorophenyl)-propiolyl)-3-methyl-1,2,3,4-tetrahydro-isoquinoline]",4.9,53,–,–
"COc1cccc2c1CCN(C(=O)C#Cc1cccc(Cl)c1)C2 [Example 30, 2-(3-(3-chlorophenyl)-propiolyl)-5-methoxy-1,2,3,4-tetrahydro-isoquinoline]",0.9,1.5,–,–
"Cc1ccc(C#CC(=O)N2c3ccccc3CC2C)c(C)c1 (stereo not drawn) [Example 63, 1-(3-(2,4-dimethylphenyl)-propiolyl)-2-methyl-indoline]",–,–,34,–
"O=C(C#Cc1ccc(F)cc1)N1CCc2ccccc2C1 [Example 64, 2-(3-(4-fluorophenyl)-propiolyl)-1,2,3,4-tetrahydro-isoquinoline]",–,–,88,–
"CC1Cc2ccccc2N1C(=O)C#Cc1ccc(F)cc1 (stereo not drawn) [Example 65, 1-(3-(4-fluorophenyl)-propiolyl)-2-methyl-indoline]",–,–,34,–
"CC1Cc2ccccc2N1C(=O)C#Cc1cccc(Cl)c1 (stereo not drawn) [Example 66, 1-(3-(3-chlorophenyl)-propiolyl)-2-methyl-indoline]",–,–,70,–
"Cc1ccc(C#CC(=O)N2CCc3ccccc3C2)cc1F [Example 67, 2-(3-(3-fluoro-4-methylphenyl)-propiolyl)-1,2,3,4-tetrahydro-isoquinoline]",–,–,12,–
"Cc1ccc(C#CC(=O)N2c3ccccc3CC2C)cc1F (stereo not drawn) [Example 68, 1-(3-(3-fluoro-4-methylphenyl)-propiolyl)-2-methyl-indoline]",–,–,11,–
"Cc1ccc(C#CC(=O)N2CCc3ccccc3C2)cc1C [Example 71, 2-(3-(3,4-dimethylphenyl)-propiolyl)-1,2,3,4-tetrahydro-isoquinoline]",–,–,43,–
"Cc1ccc(C#CC(=O)N2c3ccccc3CC2C)cc1C (stereo not drawn) [Example 72, 1-(3-(3,4-dimethylphenyl)-propiolyl)-2-methyl-indoline]",–,–,25,–
"COc1ccc(Br)c(C#CC(=O)N2c3ccccc3CC2C)c1 (stereo not drawn) [Example 73, 1-(3-(2-bromo-5-methoxyphenyl)-propiolyl)-2-methyl-indoline]",–,–,45,–
"Cc1ccccc1C#CC(=O)N1c2ccccc2CC1C (stereo not drawn) [Example 74, 1-(3-(2-tolyl)-propiolyl)-2-methyl-indoline]",–,–,12,–
"CC1Cc2ccccc2N1C(=O)C#Cc1ccccc1C(F)(F)F (stereo not drawn) [Example 75, 1-(3-(2-trifluoromethylphenyl)-propiolyl)-2-methyl-indoline]",–,–,45,–
"N#Cc1ccccc1C#CC(=O)N1CCc2ccccc2C1 [Example 76, 2-(3-(2-cyano-phenyl)-propiolyl)-1,2,3,4-tetrahydro-isoquinoline]",–,–,26,–
"N#Cc1cccc(C#CC(=O)N2CCc3ccccc3C2)c1 [Example 77, 2-(3-(3-cyano-phenyl)-propiolyl)-1,2,3,4-tetrahydro-isoquinoline]",–,–,90,–
